The molecules below were run on A549 cells (assay: Cytotoxicity against A549 cells, Alamar Blue). Conditions: Homo sapiens, A549, 65 h; Supplementary Table 1; compound 0.5 mM; percentage of controls (n=1).
Type: cell-based
In short: (§1)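 HeLa and A549 cells grown in DMEM with 10% FCS and 2 mM L-Glutamine were seeded at 2 × 10^4 cells/well. They were exposed to compounds for ~65 hours, then Alamar Blue was added for a further 5 hours to measure viability.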

SMILES | viability at 500 µM [%]
CCOC(=O)C1CSCCN1 (stereo not drawn) [compound 402, ethyl thiomorpholine‐3‐carboxylate] | 95.2
Nc1cccc(-c2cccs2)c1 [compound 403, 3‐(2‐thienyl)aniline] | 52.3
Nc1cccc(-c2ccsc2)c1 [compound 404, 3‐thien‐3‐ylaniline] | 83.3
O=C1CC(C(=O)O)c2ccccc21 (stereo not drawn) [compound 409, 3‐oxoindane‐1‐carboxylic acid] | 92
O=C(O)Cc1coc2ccccc12 [compound 410, benzo[b]furan‐3‐ylacetic acid] | 97.4
NCc1ccc(N2CCCC2)cc1 [compound 414, [4‐(1‐pyrrolidinyl)phenyl]methanamine] | 96.8
Nc1cccc(CN2CCCC2)c1 [compound 415, 3‐(pyrrolidin‐1‐ylmethyl)aniline] | 107
Nc1ccccc1OC(F)(F)F [compound 418, 2‐(trifluoromethoxy)aniline] | 97.9
Nc1cc(F)ccc1-n1ccnc1 [compound 420, 5‐fluoro‐2‐(1H‐imidazol‐1‐yl)aniline] | 100
OCc1ccc(N2CCCC2)cc1 [compound 427, [4‐(1‐pyrrolidinyl)phenyl]methanol] | 64.2
OCc1cccc(N2CCCC2)c1 [compound 428, (3‐pyrrolidin‐1‐ylphenyl)methanol] | 81.2
OCc1cccnc1N1CCCC1 [compound 440, [2‐(1‐pyrrolidinyl)‐3‐pyridinyl]methanol] | 94
Nc1cccc(N2CCOCC2)c1 [compound 441, 3‐morpholin‐4‐ylaniline] | 85
O=C(O)c1ccc2ncsc2c1 [compound 444, 1,3‐benzothiazole‐6‐carboxylic acid] | 63.5
O=C(O)c1cc2cccnc2s1 [compound 445, thieno[2,3‐b]pyridine‐2‐carboxylic acid] | 45.2

Same assay, conditions: Supplementary Table 1; compound 0.5 mM; percentage of controls (n=1)

SMILES | A549 Cells Alamar Blue
C#CCN1CCS(=O)(=O)CC1 [compound 379, 4‐(Prop‐2‐ynyl)thiomorpholine 1,1‐dioxide] | 154 percentage of controls
CSc1ccc(C(=O)O)s1 [compound 389, 5‐(methylthio)thiophene‐2‐carboxylic acid] | 125.1 percentage of controls
CC(=O)c1ccc2c(c1)OCCO2 [compound 430, 1‐(2,3‐dihydro‐1,4‐benzodioxin‐6‐yl)ethan‐1‐one] | 101.8 percentage of controls

These molecules were tested on HeLa cells (assay: cells). Conditions: Homo sapiens, HeLa, 65 h, read-out: HeLa Cells Alamar Blue.
In short: as §1

SMILES | viability at 500 µM [%]
CCOC(=O)C1CSCCN1 (stereo not drawn) [compound 402, ethyl thiomorpholine‐3‐carboxylate] | 107 ± 18.3
Nc1cccc(-c2cccs2)c1 [compound 403, 3‐(2‐thienyl)aniline] | 49.1 ± 15.7
Nc1cccc(-c2ccsc2)c1 [compound 404, 3‐thien‐3‐ylaniline] | 89.4 ± 17.7
O=C1CC(C(=O)O)c2ccccc21 (stereo not drawn) [compound 409, 3‐oxoindane‐1‐carboxylic acid] | 107 ± 10.9
O=C(O)Cc1coc2ccccc12 [compound 410, benzo[b]furan‐3‐ylacetic acid] | 54.1 ± 10.3
NCc1ccc(N2CCCC2)cc1 [compound 414, [4‐(1‐pyrrolidinyl)phenyl]methanamine] | 68 ± 13.7
Nc1cccc(CN2CCCC2)c1 [compound 415, 3‐(pyrrolidin‐1‐ylmethyl)aniline] | 57.8 ± 4.5
Nc1ccccc1OC(F)(F)F [compound 418, 2‐(trifluoromethoxy)aniline] | 99.1 ± 14.1
Nc1cc(F)ccc1-n1ccnc1 [compound 420, 5‐fluoro‐2‐(1H‐imidazol‐1‐yl)aniline] | 98.2 ± 10.9
OCc1ccc(N2CCCC2)cc1 [compound 427, [4‐(1‐pyrrolidinyl)phenyl]methanol] | 59.8 ± 14.4
OCc1cccc(N2CCCC2)c1 [compound 428, (3‐pyrrolidin‐1‐ylphenyl)methanol] | 12.6 ± 5.6
OCc1cccnc1N1CCCC1 [compound 440, [2‐(1‐pyrrolidinyl)‐3‐pyridinyl]methanol] | 74.6 ± 7.5
Nc1cccc(N2CCOCC2)c1 [compound 441, 3‐morpholin‐4‐ylaniline] | 77.7 ± 16.7
O=C(O)c1ccc2ncsc2c1 [compound 444, 1,3‐benzothiazole‐6‐carboxylic acid] | 92 ± 9.7
O=C(O)c1cc2cccnc2s1 [compound 445, thieno[2,3‐b]pyridine‐2‐carboxylic acid] | 88 ± 8.1

Same assay, conditions: Supplementary Table 1; compound 0.5 mM; percentage of controls; mean ± SD (n=3) or SE (n=2)

SMILES | HeLa Cells Alamar Blue
C#CCN1CCS(=O)(=O)CC1 [compound 379, 4‐(Prop‐2‐ynyl)thiomorpholine 1,1‐dioxide] | 95.6 ± 12.9 percentage of controls
CSc1ccc(C(=O)O)s1 [compound 389, 5‐(methylthio)thiophene‐2‐carboxylic acid] | 104.2 ± 16.4 percentage of controls
CC(=O)c1ccc2c(c1)OCCO2 [compound 430, 1‐(2,3‐dihydro‐1,4‐benzodioxin‐6‐yl)ethan‐1‐one] | 91.1 ± 12.8 percentage of controls

These molecules were tested against T1, TbINO1 (Trypanosoma brucei brucei, UniProt Q5QQ46) (assay: biochemical). Conditions: Supplementary Table 1; compound 1mM; mean ± SD from Boltzman curve fitting.
T1 sequence (Q5QQ46 1-528): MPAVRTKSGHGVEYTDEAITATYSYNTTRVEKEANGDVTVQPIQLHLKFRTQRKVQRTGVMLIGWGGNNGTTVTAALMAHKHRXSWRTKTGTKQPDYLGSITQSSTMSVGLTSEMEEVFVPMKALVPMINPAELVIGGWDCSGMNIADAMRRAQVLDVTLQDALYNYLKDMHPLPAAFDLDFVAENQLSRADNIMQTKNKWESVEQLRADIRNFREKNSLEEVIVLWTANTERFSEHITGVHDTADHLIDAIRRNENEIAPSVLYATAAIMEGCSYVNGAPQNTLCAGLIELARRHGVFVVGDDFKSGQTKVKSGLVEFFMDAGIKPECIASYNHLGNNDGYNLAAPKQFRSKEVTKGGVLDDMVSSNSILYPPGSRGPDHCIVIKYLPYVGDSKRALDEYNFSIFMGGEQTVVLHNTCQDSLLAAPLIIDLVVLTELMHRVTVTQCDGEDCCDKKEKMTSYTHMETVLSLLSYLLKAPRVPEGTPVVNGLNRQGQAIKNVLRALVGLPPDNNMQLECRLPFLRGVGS
Type: binding

Tb Ino1 Tm Shift [˚C] [°C] | SMILES
0.32 ± 0.08 | C#CCN1CCS(=O)(=O)CC1 [compound 379, 4‐(Prop‐2‐ynyl)thiomorpholine 1,1‐dioxide]
0.43 ± 0.05 | CSc1ccc(C(=O)O)s1 [compound 389, 5‐(methylthio)thiophene‐2‐carboxylic acid]
0.13 ± 0.08 | CC(=O)c1ccc2c(c1)OCCO2 [compound 430, 1‐(2,3‐dihydro‐1,4‐benzodioxin‐6‐yl)ethan‐1‐one]

Same assay, conditions: read-out: Tb Ino1 Tm Shift [˚C]

SMILES | ΔTm at 1000 µM [°C]
CCOC(=O)C1CSCCN1 (stereo not drawn) [compound 402, ethyl thiomorpholine‐3‐carboxylate] | 0.45 ± 0.08
O=C(O)Cc1coc2ccccc12 [compound 410, benzo[b]furan‐3‐ylacetic acid] | 0.8 ± 0.07
NCc1ccc(N2CCCC2)cc1 [compound 414, [4‐(1‐pyrrolidinyl)phenyl]methanamine] | 0.14 ± 0.07
Nc1cccc(CN2CCCC2)c1 [compound 415, 3‐(pyrrolidin‐1‐ylmethyl)aniline] | 0.34 ± 0.06
OCc1ccc(N2CCCC2)cc1 [compound 427, [4‐(1‐pyrrolidinyl)phenyl]methanol] | 0.35 ± 0.06
OCc1cccc(N2CCCC2)c1 [compound 428, (3‐pyrrolidin‐1‐ylphenyl)methanol] | 0.44 ± 0.07
O=C(O)c1ccc2ncsc2c1 [compound 444, 1,3‐benzothiazole‐6‐carboxylic acid] | 0.73 ± 0.06

Second part, the molecule after the results:

ΔTm at 1000 µM [°C] | SMILES
0.04 ± 0.04 | Nc1cccc(-c2cccs2)c1 [compound 403, 3‐(2‐thienyl)aniline]
0.17 ± 0.05 | Nc1cccc(-c2ccsc2)c1 [compound 404, 3‐thien‐3‐ylaniline]
0.03 ± 0.07 | O=C1CC(C(=O)O)c2ccccc21 (stereo not drawn) [compound 409, 3‐oxoindane‐1‐carboxylic acid]
0.14 ± 0.07 | Nc1ccccc1OC(F)(F)F [compound 418, 2‐(trifluoromethoxy)aniline]
0.36 ± 0.07 | Nc1cc(F)ccc1-n1ccnc1 [compound 420, 5‐fluoro‐2‐(1H‐imidazol‐1‐yl)aniline]
0.78 ± 0.08 | OCc1cccnc1N1CCCC1 [compound 440, [2‐(1‐pyrrolidinyl)‐3‐pyridinyl]methanol]
0.27 ± 0.08 | Nc1cccc(N2CCOCC2)c1 [compound 441, 3‐morpholin‐4‐ylaniline]
0.61 ± 0.08 | O=C(O)c1cc2cccnc2s1 [compound 445, thieno[2,3‐b]pyridine‐2‐carboxylic acid]
